Assay results as given in patent US20070112026A1, “Carbostyril derivatives for accelerating salivation” (priority 2003, published 2007).

Key:
[1] = system: anesthetized rats; assay: Salivation amount in anesthetized rats after intravenous administration; assay type: in vivo; conditions: for Salivation amount: over 20 minutes, average ± standard error; for Salivation amount, comparison with the vehicle-treated group: vehicle = 100
Procedure: The effects of the present active compound on salivation in anesthetized rats were studied as mentioned below. Models for studying salivation were prepared according to the method of Masunaga, et al. (Masunaga, H., et al., Long-lasting salivation induced by a novel Muscarinic receptor agonist SNI-201 in rats and dogs. Eur. J. Pharmacol., 339: 1-9, 1997). Namely, rats had been fasted from the day before the experiment except that the intake of water was freely allowed, and the rats were anesthetized with Nembutal (=pentobarbital sodium). The rats were put down on the back, and the neck was subjected to midline incision. An ATOM anionic fluid suction catheter of 6Fr. was inserted to the air tube in order to keep the airway clear. Next, a polyethylene tube (SP55 Natsume) containing a solution of 10 U/ml heparin in physiological saline was inserted into the […] for administration of a medicament. A 0.03 mg/ml or 0.1 mg/ml solution of the test compound (2-(4-Chlorobenzoylamino)-3-(2-quinolon-4-yl)-propionic acid; general name: Rebamipide) in 2% aqueous sodium hydrogen carbonate solution, and a vehicle (2% aqueous sodium hydrogen carbonate solution) as a control solution were used, and the test compound solution and the control solution in an amount of 1 mL/kg were respectively administered intravenously via the polyethylene tube inserted into the […]. Then, the salivation amount was measured every 10 minutes for 20 minutes with using cotton swabs, and the salivation amount per one minute was calculated from the total salivation amount for this period. In this measurement, the salivation amount was measured in such a way that the dried cotton swab (the weight thereof was previously measured) was inserted into the mouth of rat, and the swab was exchanged with a new dried one in every ten minutes, and the total salivation amount was calculated from the difference in the weight of the swab between before and after inserting into the mouth. The average salivation amount was calculated as measured in the vehicle-treated group (5 animals), the test compound (0.03 mg/kg)-treated group (5 animals) and the test compound (0.1 mg/kg)-treated group (4 animals), and the percentage of the average salivation amount in the test compound-treated groups against that of the vehicle-treated group was calculated.

[2] = system: non-anesthetized rats; assay: Salivation amount in non-anesthetized rats after intragastric administration (esophagus diverticulum collection); assay type: in vivo; conditions: saliva collected for 4 hours, average ± standard error
Procedure: The effects of the present active compound by intragastric administration in non-anesthetized rats with respect to the salivation were studied as mentioned below. Using non-anesthetized rats, the saliva being swallowed for 4 hours on awaking into the diverticulum placed at the esophagus was collected and the salivation amount (g) was measured. Vehicle (0.5% sodium carboxymethyl cellulose solution) or Rebamipide 10, 30 or 100 mg/kg was intragastrically administered once when the esophagus diverticulum was set, and as a result, the average ± standard error of the salivation amount was 0.88±0.23 g (n=7) in the vehicle-treated group, 0.99±0.21 g (n=8) in the Rebamipide (10 mg/kg)-treated group, 1.37±0.26 g (n=7) in the Rebamipide (30 mg/kg)-treated group, and 1.72±0.40 g (n=8) in the Rebamipide (100 mg/kg)-treated group.

[3] = system: patients with Sjögren's syndrome; assay: Effects on xerostomia in patients with Sjögren's syndrome (subjective symptom scores, Saxon Test, overall evaluation); assay type: in vivo, human; conditions: for Salivation amount (Saxon test) / Total scores of subjective symptoms: 100 mg tablet orally three times per day, 21 patients; for Salivation amount (Saxon test): 1.29±1.00 g before administration; for Total scores of subjective symptoms: 9.6±4.1 before administration; for Overall evaluation: "Effective" / Overall evaluation: "Non-effective" / Overall evaluation: "Remarkably effective": of 21 patients
Procedure: The effects of the present active compound on xerostomia in patients with Sjögren's syndrome was tested. The test was carried out for 21 patients (age: 27 to 85 years old, all female) who were diagnosed as surely having Sjögren's syndrome on the basis of Revised Diagnosis Standard for Sjögren's syndrome (issued by Ministry of Health, Labour and Welfare in Japan in 1999). Tablet containing 2-(4-chlorobenzoylamino)-3-(2-quinolon-4-yl)propionic acid (100 mg per tablet) was orally administered three times per day immediately after a meal (one tablet for each time) for 8 weeks. i) Evaluation by patients themselves as to subjective symptoms (e.g. feeling of dryness of the mouth, hydromania, pain in the mouth, taste disorder, difficulty in dietary intake, abnormality of saliva) before administration of tablet, after administration of tablet for 4 weeks and 8 weeks, respectively. […] Based on the salivation amount thus measured, the increasing rate of salivation was determined by the following equation: [formula] The effects of the test compound were evaluated based on both of the improvement of subjective symptoms and the salivation amount, which was classified in three degrees as follows. “Remarkably effective: Both of the improved rate of subjective symptoms and the increasing rate of salivation being more than 50%; “Effective”: Either of the improved rate of subjective symptoms or the increasing rate of salivation being more than 50%; “Non-effective”: Neither the improvement of subjective symptoms nor the increasing of salivation being observed. The experimental results were statistically evaluated in accordance with Wilcoxon's rank test.

[4] = system: patient suffering from mouth dryness accompanying Sjögren's syndrome; assay: Case of a patient suffering from mouth dryness accompanying Sjögren's syndrome (Saxon test); assay type: in vivo, human; conditions: for Subjective symptoms: 300 mg/day started May 29, 2003; for Salivation amount (Saxon test): 300 mg/day started May 29, 2003 (0.89 g at start), one patient
Description: Effects of the present compound 2-(4-chlorobenzoyl-amino}-3-(2-quinolon-4-yl)propionic acid on a patient suffering from mouth dryness accompanying Sjögren's syndrome:
(1) Patient: A person.
(2) Chief Complaint: Cotton Mouth, Mattering of Eyes.
The symptoms of the mouth dryness were significant dry of toungue and significant lowering of salivaition (0.52 g in Saxon test). No swelling of parotid gland. Eye dryness was Silmer test (right 2 mm, left 1 mm), Rose bengal test (3+). No inflammation of the eye. Examination findings were ESR 17 mm/hr., WBC 5500/μL, RBC 484×10^4/μL, Hgb 13.4 g/dL, T.P. 8.4 g/dL, Alb 4.4 g/dL, AST 17 IU/mL, ALT 9 IU/mL, Amylase 140 IU/L, CK 46 IU/L, Cr 0.69 mg/dL, BUN 14.0 mg/dL, CRP<0.3 mg/dL, ANA 640 folds (speckled pattern), anti-SS-A antibody 126 times, Anti-SS-B antibody, negative, IgG 2270 mg/dL, IgA 368 mg/dL, IgM 132 mg/dL, and immune complex, Ciq solid-phase method, 3.3 (positive). (5) Clinical Course:
Administration of 2-(4-chloro-benzoylamino)-3-(2-quinolon-4-yl)propionic acid (300 mg/day)was started on May 29, 2003. […] 25, 2003 and then the subjective symptoms were improved. The salivation amount more increased to 1.86 g on Jul. 23, 2003 and then the subjective symptoms were also more improved.

[5] = system: patient with Sjögren's syndrome; assay: Patient record: earlier treatments of the same Sjögren's syndrome patient; assay type: in vivo, human; conditions: earlier treatment of the patient of Experiment 4
Procedure: Around February 1999, the patient visited a hospital in view of dryness of mouth and difficulty in tearing. Then, they were diagnosed to have Sjögren's syndrome in view of antinuclear antibody: 160 times, anti-SSR-A antibody: 126 times, Gum test: 8 ml, lowered function of salivary gland, ophthalmic Silmer test (right 4 mm, left 3 mm), dry kerato-conjunctivitis. […] Besides, Salivate spray was also applied but it was not effective and discontinued. After moving their home because of marriage, their hospital was change on May 1, 2003. Before the changing the hospital, an ophthalmic drop containing chondroitin sulfate has frequently been used for treating dry conjunctivitis.

## O=C(NC(Cc1cc(=O)[nH]c2ccccc12)C(=O)O)c1ccc(Cl)cc1 (centres unmarked) [Rebamipide, 2-(4-Chlorobenzoylamino)-3-(2-quinolon-4-yl)-propionic acid]
[1]; 0.03 mg/kg intravenous, n=5, listed as Test compound
  Salivation amount: 0.262 ± 0.084 mg/min
[1]; 0.03 mg/kg intravenous, n=5, listed as test compound
  Salivation amount: 0.262 ± 0.084 mg/min
[1]; 0.03 mg/kg intravenous
  Salivation amount, comparison with the vehicle-treated group: 205%
[1]; 0.1 mg/kg intravenous, n=4, listed as Test compound
  Salivation amount: 0.305 ± 0.097 mg/min
[1]; 0.1 mg/kg intravenous, n=4, listed as test compound
  Salivation amount: 0.305 ± 0.097 mg/min
[1]; 0.1 mg/kg intravenous
  Salivation amount, comparison with the vehicle-treated group: 239%
[2]; 10 mg/kg intragastric once, n=8
  Salivation amount: 0.99 ± 0.21 g
[2]; 30 mg/kg intragastric once, n=7
  Salivation amount: 1.37 ± 0.26 g
[2]; 100 mg/kg intragastric once, n=8
  Salivation amount: 1.72 ± 0.40 g
[3]; after 4 weeks
  Effectiveness: 52.4%
  Salivation amount (Saxon test): 1.95 ± 1.21 g
  Total scores of subjective symptoms: 6.6±3.2
  Overall evaluation: "Effective": 9 patients
  Overall evaluation: "Non-effective": 10 patients
  Overall evaluation: "Remarkably effective": 2 patients
[3]; after 8 weeks
  Effectiveness: 61.9%
  Salivation amount (Saxon test): 1.93 ± 1.14 g
  Total scores of subjective symptoms: 5.2±2.6
  Overall evaluation: "Effective": 7 patients
  Overall evaluation: "Non-effective": 8 patients
  Overall evaluation: "Remarkably effective": 6 patients
[4]; Jul. 23, 2003
  Subjective symptoms: more improved
  Salivation amount (Saxon test): 1.86 g
[4]; Jun. 25, 2003
  Subjective symptoms: improved
  Salivation amount (Saxon test): 1.55 g

## C[C@@H]1O[C@@]2(CS1)CN1CCC2CC1.Cl [Sebimerine hydrochloride]
[5]
  Side effects leading to stop of administration: abdominal discomfort and stomach ache
